± gives the standard deviation of the averaged measurements.
Columns and labels:
Experiment in all cases: relative viability vs DMSO control (72 h) (fraction); higher = more viable cells
[1] = tested on: KHOS-NP
In short: (§1)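 Sarcoma cell lines were grown in 384-well plates seeded toward 80–90% confluence and exposed 24 h later to serially diluted compound. After 72 h at 37 °C and 5% CO2, with 0.1% DMSO vehicle and a 5 µM positive control on the plates, ATPLite was read. Relative viability, given as percent growth averaged over up to triplicate wells, was rescaled so that 1 is full and 0 is none.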

[2] = tested on: A204
In short: as §1

[3] = tested on: HS729
In short: as §1

[4] = tested on: HT1080
In short: as §1

[5] = tested on: SW1353
In short: as §1

[6] = tested on: MES-SA
In short: as §1

[7] = tested on: G401
In short: as §1

[8] = tested on: SYO-1
In short: as §1

[9] = tested on: SK-LMS-1
In short: as §1

[10] = tested on: SW872
In short: as §1

[11] = tested on: SW684
In short: as §1

[12] = tested on: VA-ES-BJ
In short: as §1

Cc1ccc(Nc2nccc(N(C)c3ccc4c(C)n(C)nc4c3)n2)cc1S(N)(=O)=O [Pazopanib]
relative viability ([1]; 0.00017 µM): 1.04 ± 0.012
relative viability ([1]; 0.00051 µM): 1.05 ± 0.02
relative viability ([1]; 0.00152 µM): 1.038 ± 0.0067
relative viability ([1]; 0.00457 µM): 1.02 ± 0.013
relative viability ([1]; 0.01372 µM): 1.02 ± 0.027
relative viability ([1]; 0.04115 µM): 1.06 ± 0.026
relative viability ([1]; 0.1235 µM): 1.03 ± 0.021
relative viability ([1]; 0.3704 µM): 1.01 ± 0.015
relative viability ([1]; 1.111 µM): 0.99 ± 0.029
relative viability ([1]; 3.333 µM): 0.968 ± 0.021
relative viability ([1]; 10 µM): 0.719 ± 0.012
relative viability ([2]; 0.00017 µM): 1.03 ± 0.024
relative viability ([2]; 0.00051 µM): 1.06 ± 0.082
relative viability ([2]; 0.00152 µM): 1.06 ± 0.019
relative viability ([2]; 0.00457 µM): 1.03 ± 0.034
relative viability ([2]; 0.01372 µM): 0.977 ± 0.067
relative viability ([2]; 0.04115 µM): 0.928 ± 0.082
relative viability ([2]; 0.1235 µM): 0.611 ± 0.13
relative viability ([2]; 0.3704 µM): 0.348 ± 0.0057
relative viability ([2]; 1.111 µM): 0.342 ± 0.025
relative viability ([2]; 3.333 µM): 0.294 ± 0.026
relative viability ([2]; 10 µM): 0.243 ± 0.046
relative viability ([3]; 0.00017 µM): 0.9 ± 0.059
relative viability ([3]; 0.00051 µM): 0.922 ± 0.033
relative viability ([3]; 0.00152 µM): 0.876 ± 0.046
relative viability ([3]; 0.00457 µM): 0.879 ± 0.013
relative viability ([3]; 0.01372 µM): 0.917 ± 0.033
relative viability ([3]; 0.04115 µM): 0.8727 ± 0.0081
relative viability ([3]; 0.1235 µM): 0.843 ± 0.024
relative viability ([3]; 0.3704 µM): 0.793 ± 0.014
relative viability ([3]; 1.111 µM): 0.724 ± 0.031
relative viability ([3]; 3.333 µM): 0.7 ± 0.047
relative viability ([3]; 10 µM): 0.554 ± 0.057
relative viability ([4]; 0.00017 µM): 1.03 ± 0.025
relative viability ([4]; 0.00051 µM): 1.064 ± 0.0055
relative viability ([4]; 0.00152 µM): 1.04 ± 0.03
relative viability ([4]; 0.00457 µM): 1.05 ± 0.033
relative viability ([4]; 0.01372 µM): 1.045 ± 0.0067
relative viability ([4]; 0.04115 µM): 1.05 ± 0.042
relative viability ([4]; 0.1235 µM): 1.03 ± 0.04
relative viability ([4]; 0.3704 µM): 1.03 ± 0.019
relative viability ([4]; 1.111 µM): 1.05 ± 0.022
relative viability ([4]; 3.333 µM): 1.07 ± 0.018
relative viability ([4]; 10 µM): 1.07 ± 0.033
relative viability ([5]; 0.00017 µM): 0.962 ± 0.026
relative viability ([5]; 0.00051 µM): 0.952 ± 0.037
relative viability ([5]; 0.00152 µM): 0.94 ± 0.035
relative viability ([5]; 0.00457 µM): 0.977 ± 0.016
relative viability ([5]; 0.01372 µM): 0.96 ± 0.03
relative viability ([5]; 0.04115 µM): 0.947 ± 0.051
relative viability ([5]; 0.1235 µM): 0.946 ± 0.046
relative viability ([5]; 0.3704 µM): 0.939 ± 0.013
relative viability ([5]; 1.111 µM): 0.931 ± 0.029
relative viability ([5]; 3.333 µM): 0.89 ± 0.051
relative viability ([5]; 10 µM): 0.8 ± 0.037
relative viability ([6]; 0.00017 µM): 0.9224 ± 0.0055
relative viability ([6]; 0.00051 µM): 0.925 ± 0.014
relative viability ([6]; 0.00152 µM): 0.931 ± 0.015
relative viability ([6]; 0.00457 µM): 0.934 ± 0.037
relative viability ([6]; 0.01372 µM): 0.933 ± 0.021
relative viability ([6]; 0.04115 µM): 0.928 ± 0.051
relative viability ([6]; 0.1235 µM): 0.922 ± 0.029
relative viability ([6]; 0.3704 µM): 0.95 ± 0.033
relative viability ([6]; 1.111 µM): 0.931 ± 0.016
relative viability ([6]; 3.333 µM): 0.824 ± 0.025
relative viability ([6]; 10 µM): 0.517 ± 0.015
relative viability ([7]; 0.00017 µM): 0.952 ± 0.019
relative viability ([7]; 0.00051 µM): 1.01 ± 0.017
relative viability ([7]; 0.00152 µM): 0.994 ± 0.045
relative viability ([7]; 0.00457 µM): 0.983 ± 0.072
relative viability ([7]; 0.01372 µM): 1 ± 0.04
relative viability ([7]; 0.04115 µM): 0.949 ± 0.019
relative viability ([7]; 0.1235 µM): 0.909 ± 0.017
relative viability ([7]; 0.3704 µM): 0.864 ± 0.027
relative viability ([7]; 1.111 µM): 0.857 ± 0.02
relative viability ([7]; 3.333 µM): 0.696 ± 0.028
relative viability ([7]; 10 µM): 0.449 ± 0.035
relative viability ([8]; 0.00017 µM): 0.919 ± 0.036
relative viability ([8]; 0.00051 µM): 0.901 ± 0.014
relative viability ([8]; 0.00152 µM): 0.882 ± 0.051
relative viability ([8]; 0.00457 µM): 0.862 ± 0.024
relative viability ([8]; 0.01372 µM): 0.823 ± 0.012
relative viability ([8]; 0.04115 µM): 0.777 ± 0.069
relative viability ([8]; 0.1235 µM): 0.685 ± 0.036
relative viability ([8]; 0.3704 µM): 0.576 ± 0.032
relative viability ([8]; 1.111 µM): 0.506 ± 0.019
relative viability ([8]; 3.333 µM): 0.471 ± 0.029
relative viability ([8]; 10 µM): 0.369 ± 0.011
relative viability ([9]; 0.00017 µM): 0.993 ± 0.037
relative viability ([9]; 0.00051 µM): 1 ± 0.013
relative viability ([9]; 0.00152 µM): 1.02 ± 0.027
relative viability ([9]; 0.00457 µM): 1.06 ± 0.021
relative viability ([9]; 0.01372 µM): 1.01 ± 0.026
relative viability ([9]; 0.04115 µM): 0.998 ± 0.045
relative viability ([9]; 0.1235 µM): 0.973 ± 0.027
relative viability ([9]; 0.3704 µM): 0.9626 ± 0.0087
relative viability ([9]; 1.111 µM): 0.981 ± 0.07
relative viability ([9]; 3.333 µM): 0.935 ± 0.025
relative viability ([9]; 10 µM): 0.776 ± 0.032
relative viability ([10]; 0.00017 µM): 1 ± 0.015
relative viability ([10]; 0.00051 µM): 0.986 ± 0.026
relative viability ([10]; 0.00152 µM): 0.988 ± 0.015
relative viability ([10]; 0.00457 µM): 0.9911 ± 0.0071
relative viability ([10]; 0.01372 µM): 0.989 ± 0.018
relative viability ([10]; 0.04115 µM): 0.934 ± 0.065
relative viability ([10]; 0.1235 µM): 0.9475 ± 0.0033
relative viability ([10]; 0.3704 µM): 0.968 ± 0.019
relative viability ([10]; 1.111 µM): 0.984 ± 0.023
relative viability ([10]; 3.333 µM): 0.934 ± 0.029
relative viability ([10]; 10 µM): 0.694 ± 0.022
relative viability ([11]; 0.00017 µM): 1.13 ± 0.035
relative viability ([11]; 0.00051 µM): 1.13 ± 0.016
relative viability ([11]; 0.00152 µM): 1.19 ± 0.026
relative viability ([11]; 0.00457 µM): 1.15 ± 0.031
relative viability ([11]; 0.01372 µM): 1.15 ± 0.026
relative viability ([11]; 0.04115 µM): 1.129 ± 0.0043
relative viability ([11]; 0.1235 µM): 1.14 ± 0.042
relative viability ([11]; 0.3704 µM): 1.12 ± 0.028
relative viability ([11]; 1.111 µM): 1.16 ± 0.054
relative viability ([11]; 3.333 µM): 1.13 ± 0.024
relative viability ([11]; 10 µM): 0.878 ± 0.064
relative viability ([12]; 0.00017 µM): 1.04 ± 0.019
relative viability ([12]; 0.00051 µM): 1.05 ± 0.035
relative viability ([12]; 0.00152 µM): 1.07 ± 0.045
relative viability ([12]; 0.00457 µM): 1.05 ± 0.027
relative viability ([12]; 0.01372 µM): 1.06 ± 0.038
relative viability ([12]; 0.04115 µM): 1.07 ± 0.043
relative viability ([12]; 0.1235 µM): 1.08 ± 0.038
relative viability ([12]; 0.3704 µM): 1.12 ± 0.049
relative viability ([12]; 1.111 µM): 1.14 ± 0.055
relative viability ([12]; 3.333 µM): 1.12 ± 0.091
relative viability ([12]; 10 µM): 1.06 ± 0.018

Reference: the supplement of paper PMC10883282
